# Columns and labels:
# [1] = Half life in human PMNC at 4 mg/L; format: ADME
# [2] = Ratio of drug level for cellular to extracellular region of human PMNC cells at 10 to 50 ug/ml; format: ADME, cell-based
# J774 [3] = experiment: Drug level in mouse J774 cells at 50 mg/L after 2 hrs in presence of < 10% fetal calf serum relative to control; format: ADME, cell-based; details: j774, 2 h
# THP-1 [4] = experiment: Drug level in human THP1 cells at 50 mg/L after 2 hrs in presence of 50 uM proton inophore monesin relative to control; format: ADME, cell-based; details: thp-1, 2 h
# THP-1 [5] = experiment: Drug level in human THP1 cells at 50 mg/L after 2 hrs in presence 60 mM deoxyglucose and 5 mM NaN3 relative to control; format: ADME, cell-based; details: thp-1, 2 h
# THP-1 [6] = experiment: Drug level in human THP1 cells at 10 mg/L after 2 hrs in presence of 50 uM proton inophore monesin relative to control; format: ADME, cell-based; details: thp-1, 2 h
# THP-1 [7] = experiment: Drug level in human THP1 cells at 50 mg/L after 2 hrs in presence 250 uM efflux pump inhibitor gemfibrozil relative to control; format: ADME, cell-based; details: thp-1, 2 h
# THP-1 [8] = experiment: Drug level in human THP1 cells at 250 mg/L after 2 hrs in presence of 50 uM proton inophore monesin relative to control; format: ADME, cell-based; details: thp-1, 2 h
# THP-1 [9] = experiment: Drug level in human THP1 cells at 250 mg/L after 30 mins at pH 6; format: ADME, cell-based; details: thp-1, pH 6, 0.5 h
# J774 [10] = experiment: Drug level in mouse J774 cells at 50 mg/L at pH 6.5; format: ADME, cell-based; details: j774, pH 6.5
# [11] = Half life in human THP1 cells at 4 mg/L; format: ADME, cell-based; details: THP-1 cells
# THP-1 [12] = experiment: Drug level in human THP1 cells at 50 mg/L after 30 mins at pH 6; format: ADME, cell-based; details: thp-1, pH 6, 0.5 h
# THP-1 [13] = experiment: Ratio of drug level for cellular to extracellular region of human THP-1 cells at 10 to 50 ug/ml; format: ADME, cell-based
# [14] = Half life in mouse J774 cells at 4 mg/L; format: ADME, cell-based
# THP-1 [15] = experiment: Drug level in human THP1 cells at 50 mg/L at pH < 7 in presence of 50 uM proton inophore monesin; format: ADME, cell-based
# THP-1 [16] = experiment: Drug level in human THP1 cells at 50 mg/L after 2 hrs in presence of < 10% fetal calf serum relative to control; format: ADME, cell-based; details: thp-1, 2 h
# J774 [17] = experiment: Drug level in mouse J774 cells at 50 mg/L in presence of 50 uM proton inophore monesin relative to control; format: ADME, cell-based
# THP-1 [18] = experiment: Drug level in human THP1 cells at 50 mg/L at pH 6.5; format: ADME, cell-based; details: thp-1, pH 6.5
# THP-1 [19] = experiment: Drug level in human THP1 cells at 50 mg/L after 2 hrs in presence 10 uM efflux pump inhibitor verapamil relative to control; format: ADME, cell-based; details: thp-1, 2 h
# THP-1 [20] = experiment: Drug level in human THP1 cells at 10 mg/L at pH =< 6.5; format: ADME, cell-based
# THP-1 [21] = experiment: Drug level in human THP1 cells at 10 mg/L after 2 hrs in presence 10 uM efflux pump inhibitor verapamil relative to control; format: ADME, cell-based; details: thp-1, 2 h
# THP-1 [22] = experiment: Drug level in human THP1 cells at 10 mg/L after 2 hrs in presence 250 uM efflux pump inhibitor gemfibrozil relative to control; format: ADME, cell-based; details: thp-1, 2 h
smiles,measurement,setting,value
CC(=O)NC[C@H]1CN(c2ccc(-c3ccc(CNCc4cnn[nH]4)cc3)c(F)c2)C(=O)O1 [RADEZOLID],half-life at 4 mg/L,[1],6 min
same,Ratio,[2],8.5
same,Drug uptake,J774 [3],Active
same,Drug uptake,THP-1 [4],20%
same,Drug uptake,THP-1 [5],Active
same,Drug uptake,THP-1 [6],10%
same,Drug uptake,THP-1 [7],Active
same,Drug uptake,THP-1 [8],25%
same,Drug uptake,THP-1 [9],25%
same,Drug uptake,J774 [10],Active
same,half-life at 4 mg/L,[11],6 min
same,Drug uptake,THP-1 [12],25%
same,Ratio,THP-1 [13],8.5
same,half-life at 4 mg/L,[14],6 min
same,Drug uptake,THP-1 [15],Active
same,Drug uptake,THP-1 [16],Active
same,Drug uptake,J774 [17],30%
same,Drug uptake,THP-1 [18],Active
same,Drug uptake,THP-1 [19],Active
CC(=O)NC[C@H]1CN(c2ccc(N3CCOCC3)c(F)c2)C(=O)O1 [LINEZOLID],Drug uptake,THP-1 [4],20%
same,Drug uptake,THP-1 [6],10%
same,Drug uptake,THP-1 [8],25%
same,Drug uptake,THP-1 [9],25%
same,Drug uptake,THP-1 [12],25%
CC[C@H]1OC(=O)[C@H](C)[C@@H](O[C@H]2C[C@@](C)(OC)[C@@H](O)[C@H](C)O2)[C@H](C)[C@@H](O[C@@H]2O[C@H](C)C[C@H](N(C)C)[C@H]2O)[C@](C)(O)C[C@@H](C)CN(C)[C@H](C)[C@@H](O)[C@]1(C)O [AZITHROMYCIN],Drug uptake,THP-1 [20],10%
same,Ratio,THP-1 [21],1.7
same,Ratio,THP-1 [22],1.7
